Common to all, as to type: functional, cell-based
For experiment [1], the target named is T1, Muscarinic acetylcholine receptor M1 (Rattus norvegicus) (UniProt P08482).
T1 sequence (whole entry): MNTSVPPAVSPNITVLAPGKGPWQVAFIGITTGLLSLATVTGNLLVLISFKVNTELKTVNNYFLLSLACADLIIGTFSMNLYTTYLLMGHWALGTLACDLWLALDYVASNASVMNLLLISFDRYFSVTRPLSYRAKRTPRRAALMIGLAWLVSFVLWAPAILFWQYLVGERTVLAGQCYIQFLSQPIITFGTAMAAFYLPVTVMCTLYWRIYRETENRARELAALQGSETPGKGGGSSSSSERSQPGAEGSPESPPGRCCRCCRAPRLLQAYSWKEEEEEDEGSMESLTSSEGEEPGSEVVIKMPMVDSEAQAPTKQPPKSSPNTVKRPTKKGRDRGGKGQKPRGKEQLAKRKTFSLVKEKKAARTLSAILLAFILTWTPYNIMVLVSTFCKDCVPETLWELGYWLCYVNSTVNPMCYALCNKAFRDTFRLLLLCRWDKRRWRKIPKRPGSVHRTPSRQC
The experiment is described as follows: Agonist activity at rat muscarinic M1 receptor expressed in CHO cells at 10 uM.

The target in experiment [2] is T2, Muscarinic acetylcholine receptor M1 (Rattus norvegicus, UniProt P08482).
T2 sequence (P08482 whole entry): T1 sequence (whole entry)
The experiment is described as follows: Agonist activity at rat muscarinic M1 receptor expressed in CHO cells.

Experiment [3] concerns the target T1, Muscarinic acetylcholine receptor M1 (Rattus norvegicus). The experiment is described as follows: Agonist activity at rat muscarinic M1 receptor expressed in CHO cells relative to acetylcholine.
Experiment [4] deals with T3, Muscarinic acetylcholine receptor M2 (Rattus norvegicus, UniProt P10980).
T3 sequence (P10980 whole entry): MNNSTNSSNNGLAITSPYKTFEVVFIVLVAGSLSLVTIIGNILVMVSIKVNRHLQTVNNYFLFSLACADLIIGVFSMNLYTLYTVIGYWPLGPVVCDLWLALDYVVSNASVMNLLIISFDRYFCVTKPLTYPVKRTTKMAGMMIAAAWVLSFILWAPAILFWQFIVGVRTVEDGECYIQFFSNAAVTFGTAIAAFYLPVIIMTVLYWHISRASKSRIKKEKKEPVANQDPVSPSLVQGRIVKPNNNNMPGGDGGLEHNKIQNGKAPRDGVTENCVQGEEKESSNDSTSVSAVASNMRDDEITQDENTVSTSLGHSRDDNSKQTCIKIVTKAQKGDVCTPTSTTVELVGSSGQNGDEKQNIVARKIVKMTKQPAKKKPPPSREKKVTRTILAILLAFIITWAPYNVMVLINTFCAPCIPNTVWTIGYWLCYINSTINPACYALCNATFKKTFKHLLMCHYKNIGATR
The experiment is described as follows: Agonist activity at rat muscarinic M2 receptor expressed in CHO cells.

Experiment [5] has as its target Muscarinic acetylcholine receptor M3 (Rattus norvegicus, UniProt P08483). The experiment is described as follows: Agonist activity at rat muscarinic M3 receptor expressed in CHO cells.
The target in experiment [6] is T4, Muscarinic acetylcholine receptor M4 (Rattus norvegicus, UniProt P08485).
T4 sequence (P08485 whole entry): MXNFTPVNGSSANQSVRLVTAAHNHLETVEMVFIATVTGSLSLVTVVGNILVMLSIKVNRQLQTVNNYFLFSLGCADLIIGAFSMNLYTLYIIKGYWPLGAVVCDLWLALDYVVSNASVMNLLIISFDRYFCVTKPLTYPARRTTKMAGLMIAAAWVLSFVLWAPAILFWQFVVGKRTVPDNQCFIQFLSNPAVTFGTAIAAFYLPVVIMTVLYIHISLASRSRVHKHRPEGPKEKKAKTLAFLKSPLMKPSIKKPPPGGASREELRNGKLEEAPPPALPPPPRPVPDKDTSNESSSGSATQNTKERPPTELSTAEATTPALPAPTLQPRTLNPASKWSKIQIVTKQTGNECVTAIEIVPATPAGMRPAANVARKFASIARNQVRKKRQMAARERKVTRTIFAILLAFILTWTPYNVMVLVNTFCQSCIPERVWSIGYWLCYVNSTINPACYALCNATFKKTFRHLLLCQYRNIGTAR
The experiment is described as follows: Agonist activity at rat muscarinic M4 receptor expressed in CHO cells.

The target of experiment [7] is T5, Muscarinic acetylcholine receptor M5 (Rattus norvegicus, UniProt P08911).
T5 sequence (P08911 whole entry): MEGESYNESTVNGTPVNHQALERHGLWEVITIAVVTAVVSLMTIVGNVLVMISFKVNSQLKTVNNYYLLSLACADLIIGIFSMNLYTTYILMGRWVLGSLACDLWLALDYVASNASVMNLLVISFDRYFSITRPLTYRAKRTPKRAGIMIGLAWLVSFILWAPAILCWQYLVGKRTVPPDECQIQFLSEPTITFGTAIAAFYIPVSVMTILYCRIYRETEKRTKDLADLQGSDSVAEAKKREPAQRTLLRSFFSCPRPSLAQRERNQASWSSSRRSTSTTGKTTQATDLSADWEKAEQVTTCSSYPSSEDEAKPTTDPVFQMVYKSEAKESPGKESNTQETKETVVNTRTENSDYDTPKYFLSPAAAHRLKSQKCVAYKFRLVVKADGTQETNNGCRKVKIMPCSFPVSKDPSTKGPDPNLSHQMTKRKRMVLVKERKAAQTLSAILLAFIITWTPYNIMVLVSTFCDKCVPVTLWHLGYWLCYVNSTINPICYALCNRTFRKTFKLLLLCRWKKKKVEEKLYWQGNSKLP
Kind of experiment: Agonist activity at rat muscarinic M5 receptor expressed in CHO cells.

The results in this text go back to ChEMBL document CHEMBL1914417 (Bioorg Med Chem Lett, 2011).

Activity calls are given as the source filed them. The rule behind the calls is not given here. Bounds are passed on as bounds.

Muscarinic acetylcholine receptor M3, sequence (P08483 whole entry): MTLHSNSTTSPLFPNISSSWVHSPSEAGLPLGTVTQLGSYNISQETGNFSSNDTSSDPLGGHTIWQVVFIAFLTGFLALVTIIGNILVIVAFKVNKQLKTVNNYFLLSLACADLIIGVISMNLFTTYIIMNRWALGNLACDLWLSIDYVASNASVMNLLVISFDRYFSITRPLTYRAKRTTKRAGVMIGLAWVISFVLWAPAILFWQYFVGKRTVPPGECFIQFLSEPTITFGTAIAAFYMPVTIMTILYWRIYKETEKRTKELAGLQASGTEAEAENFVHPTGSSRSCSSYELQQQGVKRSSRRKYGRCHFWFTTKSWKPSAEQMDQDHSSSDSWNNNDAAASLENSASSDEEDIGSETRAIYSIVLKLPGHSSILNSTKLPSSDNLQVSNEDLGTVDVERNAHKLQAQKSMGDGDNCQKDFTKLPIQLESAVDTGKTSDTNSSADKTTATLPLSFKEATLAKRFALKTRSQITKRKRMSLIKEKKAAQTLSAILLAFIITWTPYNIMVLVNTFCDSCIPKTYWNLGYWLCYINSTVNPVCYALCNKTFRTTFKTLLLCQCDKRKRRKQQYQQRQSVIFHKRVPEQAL

For the compound `CCOC(=O)N1CCC(N2C[C@@H]3C[C@H]2CN3C(=O)c2ccccc2C)CC1`, the activation in experiment [1] is < 30%.
Usually EC50 stands for the concentration needed to bring the measured effect to its halfway point. What is called Emax is the size of the effect at its maximum, as opposed to the concentration needed. With `CCOC(=O)N1CCC(N2CCC[C@@H](NC(=O)c3ccc(F)cc3C)C2)CC1`, the EC50 in experiment [2] is 0.06 µM; in experiment [4], > 10 µM; in experiment [5] it was > 10 µM; in experiment [6], > 10 µM; in experiment [7], > 10 µM. The same compound returned an Emax in experiment [3] of 77%.
Consider `CCOC(=O)N1CCC(N2CC[C@@H](NC(=O)c3ccccc3C)C2)CC1`, for which, in experiment [1], the activation is < 30%.
Compound `CCOC(=O)N1CCC(N2CCC[C@@H](NC(=O)c3ccc(OC)cc3)C2)CC1` came in with an Emax in experiment [3] of 63%. The EC50 in experiment [4], in experiment [5], in experiment [6] and in experiment [7] was > 10 µM each time.
For `CCOC(=O)N1CCC(N2CCC[C@@H](NC(=O)c3ccccc3)C2)CC1`, the EC50 in experiment [2] was 0.13 µM; in experiment [4], > 10 µM; in experiment [5] it was > 10 µM; in experiment [6] it was > 10 µM; in experiment [7] it was > 10 µM. The Emax in experiment [3] was found to be 91%.
Consider `CCOC(=O)N1CCC(N2CCC[C@@H](NC(=O)c3cccc(OC)c3)C2)CC1`, for which the EC50 in experiment [2] was 0.25 µM; in experiment [4] it was > 10 µM; in experiment [5], > 10 µM; in experiment [6] it was > 10 µM; in experiment [7], > 10 µM. In addition, the Emax in experiment [3] came to 91%.
For `CCOC(=O)N1CCC(N2CCN(C(=O)c3ccccc3C)CC2)CC1`, the activation in experiment [1] is < 30%.
For the compound `CCOC(=O)N1CCC(N2CCC[C@@H](NC(=O)c3ccc(C)cc3)C2)CC1`, the Emax in experiment [3] was 41%. Besides, the EC50 in experiment [4], in experiment [5], in experiment [6] and in experiment [7] was > 10 µM throughout.
In experiment [3], `CCOC(=O)N1CCC(N2CCC[C@@H](NC(=O)c3ccccc3Cl)C2)CC1` had a maximal effect (Emax) of 57%. For the same compound, the concentration giving a half-maximal response (EC50) in experiment [4], in experiment [5], in experiment [6] and in experiment [7] was > 10 µM in each case.
For `CCOC(=O)N1CCC(N2C[C@H]3CN(C(=O)c4ccccc4C)C[C@H]3C2)CC1`, in experiment [1], the activation is < 30%.
As for `CCOC(=O)N1CCC(N2CC[C@H](NC(=O)c3ccccc3C)C2)CC1`, the activation in experiment [1] is < 30%.
As to `CCOC(=O)N1CCC(N[C@@H]2CCN(C(=O)c3ccccc3C)C2)CC1`, the activation in experiment [1] was < 30%.
With `CCOC(=O)N1CCC(N2CCC[C@H](NC(=O)c3ccccc3C)C2)CC1`, the activation entry in experiment [1] was “inactive”.
Consider `CCOC(=O)N1CCC(N2CCC[C@@H](NC(=O)C3CCCC3)C2)CC1`, for which the Emax in experiment [3] was 35%. For the same compound, the EC50 in experiment [4], in experiment [5], in experiment [6] and in experiment [7] was > 10 µM in each case.
As to `CCOC(=O)N1CCC(N2CCC[C@@H](NC(=O)c3ccc(F)c(F)c3)C2)CC1`, in experiment [3], the maximal effect (Emax) was found to be 84%. The EC50 in experiment [4], in experiment [5], in experiment [6] and in experiment [7] was > 10 µM each time.
On to `CCOC(=O)N1CCC(N2CCC[C@@H](NC(=O)C3CCCCC3)C2)CC1`, for which the Emax in experiment [3] stood at 44%. The half-maximal effective concentration (EC50) in experiment [4], in experiment [5], in experiment [6] and in experiment [7] was > 10 µM throughout.
The compound `CCOC(=O)N1CCC(N2CCC[C@@H](NC(=O)c3cccs3)C2)CC1` returned a maximum response (Emax) in experiment [3] of 61%. Besides, the 50% effective concentration (EC50) in experiment [4], in experiment [5], in experiment [6] and in experiment [7] was > 10 µM throughout.
Regarding `CCOC(=O)N1CCC(N[C@H]2CCN(C(=O)c3ccccc3C)C2)CC1`, the activation in experiment [1] is < 30%.
For the compound `CCOC(=O)N1CCC(N2CCC[C@@H](NC(=O)c3cccc(F)c3)C2)CC1`, the EC50 was 0.14 µM in experiment [2]; > 10 µM in experiment [4]; > 10 µM in experiment [5]; > 10 µM in experiment [6]; > 10 µM in experiment [7]. Moreover, the Emax in experiment [3] amounted to 92%.
